Assay results reported in US20170226072A1, “1,4-Disubstituted Piperidines, 1,4-Disubstituted Piperazines, 1,4-Disubstituted Diazepines, and 1,3-Disubstituted Pyrrolidine Compounds” (University of Kentucky Research Foundation, priority 2013, published 2017).

How the values were obtained:
[1] = target: T1, dopamine transporter (DAT) (Rattus norvegicus, UniProt P23977); experiment: [3H]DA uptake assay, striatal synaptosomal preparation; type: biochemical; settings: rat striatal synaptosomes; read-out: DAT [3H]DA Uptake Inhibition Mean ± SEM (Ki)
T1 construct: from tissue; host or cells: rat striatum, synaptosomes
T1 sequence (P23977 whole entry): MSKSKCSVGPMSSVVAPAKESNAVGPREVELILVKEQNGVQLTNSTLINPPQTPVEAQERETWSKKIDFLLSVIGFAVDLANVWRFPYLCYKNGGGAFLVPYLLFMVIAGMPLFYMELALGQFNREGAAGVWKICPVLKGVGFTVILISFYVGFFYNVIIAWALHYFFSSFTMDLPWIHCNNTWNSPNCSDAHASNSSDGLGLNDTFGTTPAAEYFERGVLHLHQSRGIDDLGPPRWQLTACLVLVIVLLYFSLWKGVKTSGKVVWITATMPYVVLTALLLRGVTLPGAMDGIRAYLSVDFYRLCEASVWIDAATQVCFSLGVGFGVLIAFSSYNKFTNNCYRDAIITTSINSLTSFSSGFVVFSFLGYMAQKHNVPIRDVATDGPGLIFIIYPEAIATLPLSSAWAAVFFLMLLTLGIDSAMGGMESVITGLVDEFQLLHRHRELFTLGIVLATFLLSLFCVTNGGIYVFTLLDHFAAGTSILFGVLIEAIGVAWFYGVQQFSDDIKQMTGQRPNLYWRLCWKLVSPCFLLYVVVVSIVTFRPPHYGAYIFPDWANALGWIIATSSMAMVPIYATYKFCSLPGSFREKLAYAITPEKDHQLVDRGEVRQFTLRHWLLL
Experimental: (§1) [^3H]DA and [^3H]5-HT Uptake Assay, Synaptosomal Preparation
(§2) [^3H]DA and [^3H]5-HT uptake into striatal synaptosomes was determined to evaluate compound inhibition of the dopamine transporter (DAT) and the serotonin transporter (SERT), respectively. […] Homogenates were centrifuged at 2000 g for 10 min at 4° C., and resulting supernatants were centrifuged at 20,000 g for 17 min at 4° C. […] Assays were performed in duplicate in a total volume of 500 (for DAT assays) or 250 μL (for SERT assays). […] Reactions were terminated by addition of 3 mL of ice-cold assay buffer and subsequent filtration and radioactivity retained by the filters was determined by liquid scintillation spectrometry (Tri-Carb 2100TR liquid scintillation analyzer; PerkinElmer Life and Analytical Sciences, Boston, Mass.).

[2] = target: T2, VMAT2 (Rattus norvegicus, UniProt Q01827); experiment: [3H]Dopamine ([3H]DA) uptake assay, vesicular preparation; type: biochemical
T2 construct: conducted using isolated synaptic vesicle preparations; from tissue; host or cells: rat striatum, isolated synaptic vesicles
T2 sequence (Q01827 whole entry): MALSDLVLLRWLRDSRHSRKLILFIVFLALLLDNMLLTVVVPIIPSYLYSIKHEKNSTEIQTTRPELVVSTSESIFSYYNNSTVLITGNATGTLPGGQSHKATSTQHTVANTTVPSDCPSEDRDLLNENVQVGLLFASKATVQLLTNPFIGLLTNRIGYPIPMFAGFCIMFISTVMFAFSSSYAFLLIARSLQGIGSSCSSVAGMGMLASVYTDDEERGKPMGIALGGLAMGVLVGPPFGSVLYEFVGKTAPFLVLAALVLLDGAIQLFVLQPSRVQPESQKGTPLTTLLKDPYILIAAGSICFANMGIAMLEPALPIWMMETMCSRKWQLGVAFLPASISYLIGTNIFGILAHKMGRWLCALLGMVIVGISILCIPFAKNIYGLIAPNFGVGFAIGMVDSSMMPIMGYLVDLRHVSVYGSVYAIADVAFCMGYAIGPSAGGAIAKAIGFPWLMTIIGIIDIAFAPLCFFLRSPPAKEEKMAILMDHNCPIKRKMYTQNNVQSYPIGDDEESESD
Experimental: [^3H]Dopamine ([^3H]DA) Uptake Assay, Vesicular Preparation
Homogenates were centrifuged (2,000 g for 10 min at 4° C.), and then the supernatants were centrifuged (10,000 g for 30 min at 4° C.). Pellets were resuspended in 2 ml of 0.32 M sucrose solution and subjected to osmotic shock by adding 7 ml of ice-cold MilliQ water to the preparation. After 1 min, osmolarity was restored by adding 900 μl of 0.25 M HEPES buffer and 900 μl of 1.0 M potassium tartrate solution. Samples were centrifuged (20,000 g for 20 min at 4° C.), and the supernatants were centrifuged (55,000 g for 1 hr at 4° C.), followed by addition of 100 μl of 10 mM MgSO4, 100 μl of 0.25 M HEPES and 100 μl of 1.0 M potassium tartrate solution prior to the final centrifugation (100,000 g for 45 min at 4° C.). Final pellets were resuspended in 2.4 ml of assay buffer (25 mM HEPES, 100 mM potassium tartrate, 50 μM EGTA, 100 μM EDTA, 1.7 mM ascorbic acid, 2 mM ATP-Mg^2+, pH 7.4). Aliquots of the vesicular suspension (100 μl) were added to tubes containing assay buffer, various concentrations of compound (0.1 nM-10 mM) and 0.1 μM [^3H]DA in a final volume of 500 and incubated at 37° C. for 8 min. […] Reactions were terminated by filtration, and radioactivity retained by the filters was determined by liquid scintillation spectrometry (Tri-Carb 2100TR liquid scintillation analyzer; PerkinElmer Life and Analytical Sciences, Boston, Mass.).

[3] = target: T3, serotonin transporter (SERT) (Rattus norvegicus, UniProt P31652); experiment: [3H]5-HT uptake assay, striatal synaptosomal preparation; type: biochemical; settings: rat striatal synaptosomes, GBR-12935 (100 nM) in buffer; read-out: SERT [3H]5-HT Uptake Inhibition Mean ± SEM (Ki)
T3 construct: from tissue
T3 sequence (P31652 whole entry): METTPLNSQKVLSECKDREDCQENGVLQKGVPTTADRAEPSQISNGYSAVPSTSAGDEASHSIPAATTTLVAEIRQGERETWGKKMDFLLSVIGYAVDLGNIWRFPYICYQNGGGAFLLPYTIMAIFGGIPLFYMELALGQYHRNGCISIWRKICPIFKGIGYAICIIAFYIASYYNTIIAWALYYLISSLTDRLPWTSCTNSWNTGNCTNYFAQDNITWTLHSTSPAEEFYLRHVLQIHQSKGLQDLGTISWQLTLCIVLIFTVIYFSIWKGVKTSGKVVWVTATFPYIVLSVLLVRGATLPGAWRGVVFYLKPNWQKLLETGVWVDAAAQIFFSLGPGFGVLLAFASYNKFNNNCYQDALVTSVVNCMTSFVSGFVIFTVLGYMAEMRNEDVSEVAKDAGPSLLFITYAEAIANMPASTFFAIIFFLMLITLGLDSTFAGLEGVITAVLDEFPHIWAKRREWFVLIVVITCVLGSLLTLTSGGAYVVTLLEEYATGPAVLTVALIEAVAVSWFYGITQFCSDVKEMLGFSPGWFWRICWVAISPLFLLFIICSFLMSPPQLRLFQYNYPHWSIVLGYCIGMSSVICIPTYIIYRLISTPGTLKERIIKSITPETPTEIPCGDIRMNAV
Experimental: as §1, §2

[4] = target: T2, VMAT2; experiment: [3H]Dihydrotetrabenazine ([3H]DTBZ) binding assay, vesicular preparation; settings: rat brain synaptic vesicles, 3 nM [3H]DTBZ; read-out: Inhibition of [3H]DTBZ binding (Ki) VMAT2
Experimental: [^3H]Dihydrotetrabenazine ([^3H]DTBZ) Binding Assay, Vesicular Preparation
The resulting supernatant (S1) was then centrifuged at 22,000 g for 10 min at 4° C. The synaptosomal pellets (P2) were homogenized in 18 mL of ice-cold Milli-Q water and exposed for 5 min for lysing synaptosomes. Osmolarity was restored by addition of 2 mL of 25 mM HEPES with 100 mM dipotassium tartrate (pH 7.5). Samples were centrifuged at 20,000 g for 20 min at 4° C. to remove lysed synaptosomal membranes. MgSO4 (1 mM) was added to the supernatant (S3), and was centrifuged at 100,000 g for 45 min at 4° C. […] Aliquot parts (100 μL) of suspension of vesicle membrane protein were incubated in assay buffer (25 mM HEPES, 100 mM dipotassium tartrate, 5 mM MgSO4, 0.1 mM EDTA and 0.05 mM EGTA, pH 7.5, at 25° C.) in the presence of 3 nM [^3H]DTBZ and at least 7 concentrations (1 nM-1 mM) of compound for 1 hr at room temperature. Nonspecific binding was determined in the presence of 20 μM tetrabenazine, a standard compound. Assays were performed in duplicate using a 96-well plate format. Reactions were terminated by filtration of samples on a Unifilter-96 GF/B filter plates (presoaked in 0.5% polyethylenimine), using a FilterMate harvester (Packard BioScience Co., Meriden, Conn.).
After washing 5 times with 350 μL of the ice-cold wash buffer (25 mM HEPES, 100 mM dipotassium tartrate, 5 mM MgSO4 and 10 mM NaCl, pH 7.5), filter plates were dried, sealed and each well filled with 40 μL Packard's MicroScint 20 cocktail. Bound [^3H]DTBZ was measured using a Packard TopCount NXT scintillation counter with a Packard Windows NT based operating system.

[5] = target: T4, hERG channel (Homo sapiens, UniProt Q12809); experiment: [3H]Dofetilide binding assay, HEK-293 cell membrane preparation; settings: HEK-293 cell membranes expressing hERG, 5 nM [3H]dofetilide; read-out: hERG [3H]Dofetilide Binding Inhibition Mean ± SEM (IC50)
T4 construct: expressed in transfected cells
T4 sequence (Q12809 whole entry): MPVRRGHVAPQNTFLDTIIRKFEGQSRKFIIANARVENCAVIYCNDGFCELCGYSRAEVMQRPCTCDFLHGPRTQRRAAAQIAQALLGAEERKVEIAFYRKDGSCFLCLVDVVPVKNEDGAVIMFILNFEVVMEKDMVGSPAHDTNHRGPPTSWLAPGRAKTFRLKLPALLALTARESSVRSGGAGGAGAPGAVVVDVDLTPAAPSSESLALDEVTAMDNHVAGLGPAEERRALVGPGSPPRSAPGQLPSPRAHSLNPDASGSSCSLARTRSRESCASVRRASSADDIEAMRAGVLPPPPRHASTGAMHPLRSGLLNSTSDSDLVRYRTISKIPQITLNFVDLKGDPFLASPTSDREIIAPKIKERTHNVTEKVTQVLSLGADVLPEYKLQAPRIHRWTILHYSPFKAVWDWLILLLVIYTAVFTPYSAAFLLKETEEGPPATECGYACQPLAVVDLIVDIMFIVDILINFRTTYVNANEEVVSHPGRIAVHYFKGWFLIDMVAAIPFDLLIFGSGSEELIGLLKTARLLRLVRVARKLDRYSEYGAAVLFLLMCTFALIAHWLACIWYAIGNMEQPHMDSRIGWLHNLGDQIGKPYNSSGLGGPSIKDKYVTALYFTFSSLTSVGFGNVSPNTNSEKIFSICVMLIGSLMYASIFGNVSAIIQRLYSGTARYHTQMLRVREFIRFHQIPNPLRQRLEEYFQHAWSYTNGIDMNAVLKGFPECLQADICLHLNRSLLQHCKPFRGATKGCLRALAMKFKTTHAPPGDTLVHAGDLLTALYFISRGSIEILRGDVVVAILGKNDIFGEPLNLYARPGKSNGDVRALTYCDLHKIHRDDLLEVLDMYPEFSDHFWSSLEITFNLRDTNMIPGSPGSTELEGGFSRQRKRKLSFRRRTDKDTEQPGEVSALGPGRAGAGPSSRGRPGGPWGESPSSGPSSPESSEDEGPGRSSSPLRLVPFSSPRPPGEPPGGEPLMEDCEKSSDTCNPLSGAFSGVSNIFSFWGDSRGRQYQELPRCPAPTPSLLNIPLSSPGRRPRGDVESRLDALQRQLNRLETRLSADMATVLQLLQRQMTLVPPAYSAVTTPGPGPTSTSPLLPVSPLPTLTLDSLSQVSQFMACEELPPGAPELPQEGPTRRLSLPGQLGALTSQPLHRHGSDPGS
Experimental: [^3H]Dofetilide Binding Assay, HEK-293 Cell Membrane Preparation
[^3H]Dofetilide binding assays were conducted using commercially available HEK-293 cell membranes which stably express the hERG channel. Membranes were suspended in assay buffer (50 mM Tris, 10 mM KCl, 1 mM MgCl2, pH 7.4) prior to the experiment. Assays were performed in duplicate in a total volume of 250 μL. Aliquots of the HEK-293 cell membrane suspension which contained 5 μg membrane protein were added to tubes containing assay buffer, 5 nM [^3H]dofetilide and a range of concentrations of analog (10 nM-100 μM). Nonspecific binding was determined in the presence of amitriptyline (1 mM). Samples were incubated for 1 hr. at 24° C., followed by rapid filtration. Radioactivity retained by the filters was determined by liquid scintillation spectrometry as described above for the [^3H]DA uptake assay. The affinity for the [^3H]dofetilide binding site on the hERG channel expressed in the HEK-293 cellular membrane was determined from the analog concentration response curves.

[6] = tested on: VMAT2 over hERG, DAT and SERT; experiment: Lead compound criteria: 30-fold selectivity for VMAT2 over hERG, DAT and SERT; settings: criterion: 30-fold selectivity for VMAT2 over hERG
Source text: Accordingly, this test assessed the potential of the tested compounds to produce cardiac arrhythmias via interaction at this off-target site. The criterion for compounds to be considered leads was a 30-fold selectivity for VMAT2 over hERG.

[7] = rat striatal synaptic vesicles, 0.1 μM [3H]DA, read-out: [3H]DA Uptake (Ki) VMAT2
[8] = synaptic vesicle preparations, summary of Table 1, read-out: inhibition of [3H]DA uptake, Ki

COc1cccc(CCN2CCC(CCc3ccccc3)CC2)c1 [Compound 2] was tested, and the Ki [1] was 3.13 ± 0.19 µM, the Ki [2, 7] was 0.022 ± 0.00087 µM and the Ki [3] was 1.15 ± 0.09 µM. The Ki [4] was 0.265 ± 0.038 µM and the IC50 [5] was 0.489 ± 0.0847 µM.
In the case of COc1cc(OC)c(OC)cc1CCC1CCN(CCc2ccccc2)CC1 [Compound 9], the Ki [1] is reported as 5.46 ± 0.12 µM, the Ki [2, 7] is reported as 0.094 ± 0.0096 µM and the Ki [4] is reported as 0.38 ± 0.049 µM. It also gave an IC50 [5] of 8.1 ± 0.585 µM.
Compound COc1ccccc1CCC1CCN(CCc2ccccc2OC)CC1 [Compound 12, 1,4-bis(2-methoxyphenethyl)piperidine] has a Ki [1] of 3.45 ± 0.45 µM, a Ki [2, 7] of 0.0093 ± 0.0006 µM and a Ki [2, 8] of 0.009 to 0.02 µM. The Ki [3] was 0.12 ± 0.01 µM, the Ki [4] was 0.19 ± 0.0088 µM and the “lead compound status (30-fold selectivity for VMAT2 over hERG, DAT and SERT)” value [6] was “successfully met the criteria for lead compound status”. It also gave an IC50 [5] of 1.07 ± 0.0906 µM.
Work on COc1ccccc1CCC1CCN(CCc2ccccc2)CC1 [Compound 13] yielded a Ki [1] of 3.56 ± 1.21 µM, a Ki [2, 7] of 0.022 ± 0.0028 µM and a Ki [3] of 0.75 ± 0.18 µM. For the same compound, the Ki [4] was 0.69 ± 0.05 µM, the “lead compound status (30-fold selectivity for VMAT2 over hERG, DAT and SERT)” value [6] was “successfully met the criteria for lead compound status” and the IC50 [5] was 1.65 ± 0.67 µM.
COc1ccc(CCC2CCN(CCc3ccccc3Cl)CC2)cc1 [Compound 24] was tested, and the Ki [1] was 5.16 ± 1.25 µM, the Ki [2, 7] was 0.04 ± 0.007 µM and the Ki [3] was 4.15 ± 1.45 µM. For the same compound, the Ki [4] was 0.23 ± 0.02 µM, the “lead compound status (30-fold selectivity for VMAT2 over hERG, DAT and SERT)” value [6] was “successfully met the criteria for lead compound status” and the IC50 [5] was 2.09 ± 0.391 µM.
COc1ccccc1CCC1CCN(CCc2ccccc2Cl)CC1 [Compound 28, 1-(2-chlorophenethyl)-4-(2-methoxyphenethyl)piperidine] was tested, and the Ki [1] was 1.25 ± 0.307 µM, the Ki [2, 7] was 0.02 ± 0.003 µM and the Ki [2, 8] was 0.009 to 0.02 µM. For the same compound, the Ki [4] was 0.19 ± 0.02 µM and the IC50 [5] was 1.19 ± 0.181 µM.
COc1ccccc1CCC1CCN(CCc2ccc(F)cc2)CC1 [Compound 29, 1-(4-fluorophenethyl)-4-(2-methoxyphenethyl)piperidine] was tested, and the Ki [1] was 4.13 ± 0.44 µM, the Ki [2, 7] was 0.013 ± 0.0021 µM and the Ki [2, 8] was 0.009 to 0.02 µM. For the same compound, the Ki [3] was 0.58 ± 0.07 µM, the Ki [4] was 0.4 ± 0.097 µM and the IC50 [5] was 0.347 ± 0.0188 µM.
COc1cccc(CCN2CCC(CCc3ccc(OC)cc3F)CC2)c1 [Compound 38, 4-(2-fluoro-4-methoxyphenethyl)-1-(3-methoxyphenethyl)piperidine] gave a Ki [1] of 2.94 ± 0.27 µM, a Ki [2, 7] of 0.083 ± 0.0038 µM and a Ki [4] of 0.19 ± 0.009 µM. It also gave an IC50 [5] of 0.479 ± 0.0643 µM.
Compound COc1ccc(CCC2CCN(CCc3ccc(F)cc3)CC2)c(F)c1 [Compound 41] has a Ki [1] of 3.48 ± 0.415 µM, a Ki [2, 7] of 0.06 ± 0.0082 µM and a Ki [4] of 0.6 ± 0.075 µM. For the same compound, the IC50 [5] was 3.6 ± 1.22 µM.
COc1cccc(CCN2CCC(CCc3cc(F)cc(F)c3)CC2)c1 [Compound 44] showed a Ki [1] of 1.91 ± 0.568 µM, a Ki [2, 7] of 0.028 ± 0.0027 µM and a Ki [4] of 0.25 ± 0.003 µM. It also gave an IC50 [5] of 0.477 ± 0.0429 µM.
In the case of c1ccc(CCN2CCN(CCc3ccccc3)CC2)cc1 [Compound 54, 1,4-diphenethylpiperazine], the Ki [1] is reported as 13.6 ± 2.69 µM, the Ki [2, 7] is reported as 0.11 ± 0.012 µM and the Ki [3] is reported as 11.4 ± 4.14 µM. For the same compound, the Ki [4] was 3.05 ± 0.64 µM and the IC50 [5] was 3.39 ± 1.94 µM.
With COc1ccccc1CCN1CCN(CCc2ccccc2OC)CC1 [Compound 55] the Ki [1] was 14.4 ± 0.456 µM, the Ki [3] was 1.58 ± 0.415 µM and the IC50 [5] was 1.02 ± 0.18 µM.
COc1cccc(CCN2CCN(CCc3cccc(OC)c3)CC2)c1 [Compound 56] showed a Ki [1] of 7.9 ± 2.89 µM, a Ki [3] of 3.62 ± 1.3 µM and an IC50 [5] of 1.49 ± 0.204 µM.
Work on Clc1ccccc1CCN1CCN(CCc2ccccc2Cl)CC1 [Compound 58] yielded a Ki [1] of 6.31 ± 1.01 µM, a Ki [3] of 3.34 ± 1.53 µM and an IC50 [5] of 1.08 ± 0.175 µM.
Compound Fc1ccc(CCN2CCN(CCc3ccc(F)cc3)CC2)cc1 [Compound 59] has a Ki [1] of 6.58 ± 1.41 µM, a Ki [2, 7] of 0.058 ± 0.012 µM and a Ki [3] of 4.95 ± 0.9 µM. It also gave a Ki [4] of 3.71 ± 0.48 µM and an IC50 [5] of 0.362 ± 0.0155 µM.
COc1ccccc1CCN1CCN(CCc2ccccc2)CC1 [Compound 60] was tested, and the Ki [1] was 12.8 ± 4.46 µM, the Ki [3] was 2.58 ± 0.415 µM and the IC50 [5] was 3.19 ± 0.327 µM.
COc1cccc(CCN2CCN(CCc3ccccc3)CC2)c1 [Compound 61] showed a Ki [1] of 17.2 ± 4.52 µM, a Ki [2, 7] of 0.098 ± 0.016 µM and a Ki [3] of 6.92 ± 1.35 µM. The Ki [4] was 1.3 ± 0.33 µM, the “lead compound status (30-fold selectivity for VMAT2 over hERG, DAT and SERT)” value [6] was “successfully met the criteria for lead compound status” and the IC50 [5] was 4.23 ± 0.86 µM.
COc1ccc(CCN2CCN(CCc3ccccc3)CC2)cc1 [Compound 62] showed a Ki [1] of 11.6 ± 3.08 µM, a Ki [2, 7] of 0.1 ± 0.011 µM and a Ki [3] of 3.72 ± 0.02 µM. For the same compound, the Ki [4] was 4.63 ± 1.31 µM, the “lead compound status (30-fold selectivity for VMAT2 over hERG, DAT and SERT)” value [6] was “successfully met the criteria for lead compound status” and the IC50 [5] was 9.19 ± 0.375 µM.
Clc1ccccc1CCN1CCN(CCc2ccccc2)CC1 [Compound 63] gave a Ki [1] of 10.4 ± 1.85 µM, a Ki [2, 7] of 0.063 ± 0.0069 µM and a Ki [4] of 1.59 ± 0.26 µM. For the same compound, the IC50 [5] was 2.84 ± 0.287 µM.
Compound Fc1ccc(CCN2CCN(CCc3ccccc3)CC2)cc1 [Compound 64] has a Ki [1] of 8.04 ± 2.57 µM, a Ki [2, 7] of 0.088 ± 0.0069 µM and a Ki [3] of 4.46 ± 0.727 µM. It also gave a Ki [4] of 3.86 ± 1.01 µM and an IC50 [5] of 2.29 ± 0.475 µM.
